Laboratory results reported in ChEMBL document CHEMBL1146924, “Beta-diketo acids with purine nucleobase scaffolds: novel, selective inhibitors of the strand transfer step of HIV integrase” (Bioorg Med Chem Lett, 2006).

What was measured:
[1] = target: T1, Human immunodeficiency virus type 1 integrase (Human immunodeficiency virus 1, UniProt Q7ZJM1); assay: Inhibition of HIV1 integrase 3'-processing step
[2] = target: T1, Human immunodeficiency virus type 1 integrase; assay: Inhibition of HIV1 integrase strand transfer step

T1 sequence (Q7ZJM1 whole entry): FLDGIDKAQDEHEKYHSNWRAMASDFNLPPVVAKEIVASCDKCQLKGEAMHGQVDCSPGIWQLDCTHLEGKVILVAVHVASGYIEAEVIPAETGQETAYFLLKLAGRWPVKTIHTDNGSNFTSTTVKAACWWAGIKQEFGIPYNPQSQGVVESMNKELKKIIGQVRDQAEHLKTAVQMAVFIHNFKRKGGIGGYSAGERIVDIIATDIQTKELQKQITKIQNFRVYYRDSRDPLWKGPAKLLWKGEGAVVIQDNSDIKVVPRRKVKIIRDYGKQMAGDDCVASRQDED

| SMILES | IC50 [1] | IC50 [2] |
| --- | --- | --- |
| O=C(O)C(=O)/C=C(/O)c1nc2cncnc2n1Cc1ccccc1 | 100 µM | 10 µM |
| O=C(O)C(=O)/C=C(/O)c1nc2c(=O)n(Cc3ccccc3)cnc2n1Cc1ccccc1 | 31.5 µM | 4.1 µM |
| O=C(O)C(=O)/C=C(\O)c1ncnc2c1ncn2Cc1ccccc1 | 1000 µM | 790 µM |
| O=C(O)C(=O)/C=C(\O)c1nc2c(ncn2Cc2ccccc2)c(=O)n1Cc1ccccc1 | 30 µM | 2.7 µM |
